Experiments:
ULK3 KO U266 MM cells = assay: ULK3 KO U266 in vivo model; set-up: species or system mice; settings: ULK3 KO U266, 10 mg/kg/day subcutaneously, M-F from day 20
Excerpt: Supplementary Figure 7. ULK3 ablation suppresses MM cell growth. A. Immunoblotting for ULK3 expression in parental, NTC CTRL and ULK3 KO U266 cells. Of note, NTC CTRL and ULK3 KO were used for the in vivo ULK3 KO model. Densitometric quantification values are annotated on the blot. B. Mice (n = 20/group) were tail vein injected […]
with 1 x106 NTC CTRL and ULK3 KO U266 MM cells. […]
onset of the disease compared to NTC CTRL . (C) Representative confocal microscopy images of formalin fixed, paraffin embedded tumors (5-micron sections), stained for human mitochondria (hMITO) as a readout of MM cells colocalization. Alexa Fluor Plus 488 goat anti-mouse were used as secondary antibody. (D) MTS showing the inhibitory profile of MA9060 on NTC CTRL and ULK3 KO for U266 cell line. Treatment with MA9060 (0-100 uM) for 48h show reduced activity of MA9060 in ULK3 KO cell lines. E. Mice were divided respectively in two groups, vehicle control (n = 10, β-HCD Captisol) or MA9-060 (n = 10). Treatment started at day 20 (M-F, 10 mg/kg/day subcutaneously). MA9-060 treatment improves overall survival in the NTC CTRL arm (median 41 days post-tumor […]
38 For MA9 therapy efficacy, mice were treated with vehicle (n=10) or MA9 (10 mg/kg/day, 39 subcutaneously, M-F from day 20; n=10) (Supplementary Fig. 7E, F). Survival and toxicity 40 (weight, clinical signs) was monitored. […]

U266-Luc MM cells = assay: U266-Luc in vivo model, tail vein injection; settings: 10 mg/kg/day subcutaneously, M-F
Method: For the U266-Luc model, 1 × 10^6 cells (100 μl/PBS) were tail vein injected into 4- to 6-week-old female and male NSG mice. […] Endpoint was represented by hind limb paralysis or >20% weight loss. When sacrificed, tumors tibiae were harvested and fixed in 10% neutral buffered formalin for 24 hours. Bioluminescent signal is reported as the average of the sum of dorsal and ventral signal of the mice/group/timepoint. […]
28 Animal Experimentation: All animal experiments were performed with approval from the
29 Moffitt/University of South Florida Institutional Animal Care and Use Committee (Protocol
31 validation of MA9 efficacy (Figure 4), we initially included n = 10 mice per treatment group:
Randomization based on sex, weight,
33 and initial tumor burden was conducted, followed by treatment with either vehicle control (n = 6),
35 Tumor progression was tracked via bioluminescence: endpoint was paralysis or >20% weight loss.
36 Experiments were blinded. […]
38 For MA9 therapy efficacy, mice were treated with vehicle (n=10) or MA9 (10 mg/kg/day,
39 subcutaneously, M-F from day 20; n=10) (Supplementary Fig. 7E, F). Survival and toxicity
40 (weight, clinical signs) was monitored.
43 Luciferase-labeled MM cells 5TGM1-Luc (RRID: CVCL_VI66) and U266-Luc (RRID: […]
51 cells (all from the ATCC, USA) were routinely cultured at 37 °C in Roswell Park Memorial
53 FBS1) and penicillin/streptomycin (hereafter, complete medium).
54 Cells were not used for five days following PI-treatment. All myeloma cell lines were […]

[1] = system: human mesenchymal stem cells (hMSCs); assay: MTS assay on hMSCs; format: cell-based; settings: nM concentration
Method: complex. Supplementary Figure 5. […]
here as reference for BRD4 inhibitory activity. […] NA=
1 hour incubation with liver microsomes. C.
ULK3 rendered in Pymol (Schrodinger Inc.) at a 2.8 Å resolution. D. Table summarizing hULK3-MA9060 crystallographic data collection and refinement statistics. E. MA9060 is a dual inhibitor, able to decrease both ULK3 and MYC protein levels in MYC-dependent MM1.S MM cells. JQ1 is here included as the control for […]
mesenchymal stem cells (hMSCs) at 24 (G) and 48 (H) hours.

BRD4-1 = molecular target: T1, BRD4-1 (Homo sapiens, UniProt O60885); assay: Bromodomain profiling assay, AlphaScreen binding, H4/4Ac ligand; settings: NA = no activity
T1 construct: evaluated against Bromodomain 1 by Reaction Biology Corporation; purchased Reaction Biology Corporation
Method: 331 Bromodomain profiling assay
333 evaluated against Bromodomain 1 by Reaction Biology Corporation.
334 The compounds were subjected to testing using a 10-dose IC50 singlet approach, involving a 3-
335 fold serial dilution starting at 10 μM, specifically against BRD4-1. Additionally, as a benchmark,
340 Detection was carried out through the AlphaScreen Binding assay with excitation/emission
341 wavelengths set at 680/520-620 nm, respectively, using the Enspire platform.
342 The data acquisition included raw data, represented as signal-background*, % Binding (relative to
343 DMSO controls), and curve fits.

`Cc1cnc(Nc2ccc(C3CCN(C)CC3)c(F)c2)nc1Nc1ccc(Cl)c(NS(=O)(=O)C(C)(C)C)c1` [MA9060] was tested, and the median overall survival (ULK3 KO U266 MM cells) was 87 days, the “MM-induced osteolysis (X-ray, histology)” value (U266-Luc MM cells) was “significantly protected against MM-induced osteolysis” and the “toxicity (weight loss, lethargy, ruffled hair)” value (U266-Luc MM cells) was “did not show any sign of toxicity”. The “tumor growth (bioluminescence) vs control” value (U266-Luc MM cells) was “significantly impaired tumor growth”, the “toxicity (weight loss, lethargy, ruffled hair)” value (U266-Luc MM cells; listed as MA9) was “no overt toxicities” and the “toxicity to normal primary human MSCs” value [1] was “not toxic”. The IC50 (BRD4-1) was 3.8 nM.

Source: article PMC12363935, “Unc-51 Like Kinase 3 (ULK3) is essential for autophagy and cell survival in multiple myeloma” (Research Square, 2025)
